Common to all, as to assay type: cell-based
The target of one test is T1, rat TRPA1 (Rattus norvegicus, UniProt Q6RI86).
T1 construct: expressed in transfected cells
Put plainly: Thermo-TRP assay: [Ca2+]i elevation (Fluo-4) in HEK-293 cells transfected with TRPA1. Particulars: for TRPA1 Efficacy (% AITC 100 μM): agonist effect as % of AITC 100 μM, HEK-293 rat TRPA1; for IC50: antagonist/desensitizing, added 5 min before AITC 100 μM, read-out: IC50 TRPA1; for EC50: half-maximal increase in [Ca2+]i, read-out: TRPA1 Potency EC50. How it is done:
(§1) The compounds were tested on HEK-293 cells either stably transfected with rat TRPA1, TRPV2, TRPV3, TRPV4, TRPM8 or human TRPV1 or not-transfected, by performing a continuous monitoring of the intracellular calcium ([Ca^2+]i) elevation during the experiments, following the protocol already described. […] Cell fluorescence before and after the addition of various concentrations of tested compounds was measured, normalizing the effects against the response to ionomycin (IM, 4 μM). The effect on [Ca^2+]i in non-transfected HEK-293 cells were used as the baseline and subtracted from the values obtained from the transfected ones. The efficacy of the agonists was determined by normalizing their effect to the maximum Ca^2+ influx effect on [Ca^2+]i observed with application of 4μM ionomycin. The effects of TRPA1 agonists are expressed as a percentage of the effect obtained with 100 μM allyl isothiocyanate (AITC). In the TRPV3 assay, rat TRPV3-expressing HEK-293 cells were first sensitized with the structurally unrelated agonist 2-aminoethoxydiphenyl borate (100 μM). For the TRPM8, the experiments were carried out at 22 °C. The potency (EC50 values) is determined as the concentration required to produce half-maximal increases in [Ca^2+]i. […] A dose-response curve fitting (sigmoidal dose-response variable slope) and parameter estimation were performed with Graph-Pad Prism 8 (GraphPad Software Inc., San Diego, CA, USA). All determinations were performed at least in triplicate.

The target of the next test is T2, human TRPV1 (Homo sapiens, UniProt Q8NER1).
T2 construct: expressed in transfected cells
T2 sequence (Q8NER1 whole entry): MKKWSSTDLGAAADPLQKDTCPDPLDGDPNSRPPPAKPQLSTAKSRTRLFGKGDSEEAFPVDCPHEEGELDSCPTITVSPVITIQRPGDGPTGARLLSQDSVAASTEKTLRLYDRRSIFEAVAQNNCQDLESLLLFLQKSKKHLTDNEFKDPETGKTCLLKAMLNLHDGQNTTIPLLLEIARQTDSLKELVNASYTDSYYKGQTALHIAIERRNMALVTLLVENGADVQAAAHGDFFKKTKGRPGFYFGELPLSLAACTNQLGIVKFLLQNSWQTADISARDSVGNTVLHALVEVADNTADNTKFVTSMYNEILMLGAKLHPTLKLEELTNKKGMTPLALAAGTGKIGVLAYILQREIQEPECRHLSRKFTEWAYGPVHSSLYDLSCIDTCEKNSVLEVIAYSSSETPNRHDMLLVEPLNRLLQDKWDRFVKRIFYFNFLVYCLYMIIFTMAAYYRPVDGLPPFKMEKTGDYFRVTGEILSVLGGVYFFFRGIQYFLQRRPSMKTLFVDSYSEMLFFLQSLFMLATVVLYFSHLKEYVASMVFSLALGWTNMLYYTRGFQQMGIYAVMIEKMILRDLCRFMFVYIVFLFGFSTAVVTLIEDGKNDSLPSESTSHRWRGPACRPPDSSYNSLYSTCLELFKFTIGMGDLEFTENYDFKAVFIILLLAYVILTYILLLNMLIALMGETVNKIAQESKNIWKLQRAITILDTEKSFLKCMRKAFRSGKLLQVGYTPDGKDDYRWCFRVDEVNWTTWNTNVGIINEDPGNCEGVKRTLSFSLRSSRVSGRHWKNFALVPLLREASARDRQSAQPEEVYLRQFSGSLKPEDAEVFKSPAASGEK
As to the kind of experiment: Thermo-TRP assay: [Ca2+]i elevation (Fluo-4) in HEK-293 cells transfected with TRPV1. The method, then: as §1

The target in the next test is T3, rat TRPV4 (Rattus norvegicus, UniProt Q9ERZ8).
T3 construct: expressed in transfected cells
T3 sequence (Q9ERZ8 whole entry): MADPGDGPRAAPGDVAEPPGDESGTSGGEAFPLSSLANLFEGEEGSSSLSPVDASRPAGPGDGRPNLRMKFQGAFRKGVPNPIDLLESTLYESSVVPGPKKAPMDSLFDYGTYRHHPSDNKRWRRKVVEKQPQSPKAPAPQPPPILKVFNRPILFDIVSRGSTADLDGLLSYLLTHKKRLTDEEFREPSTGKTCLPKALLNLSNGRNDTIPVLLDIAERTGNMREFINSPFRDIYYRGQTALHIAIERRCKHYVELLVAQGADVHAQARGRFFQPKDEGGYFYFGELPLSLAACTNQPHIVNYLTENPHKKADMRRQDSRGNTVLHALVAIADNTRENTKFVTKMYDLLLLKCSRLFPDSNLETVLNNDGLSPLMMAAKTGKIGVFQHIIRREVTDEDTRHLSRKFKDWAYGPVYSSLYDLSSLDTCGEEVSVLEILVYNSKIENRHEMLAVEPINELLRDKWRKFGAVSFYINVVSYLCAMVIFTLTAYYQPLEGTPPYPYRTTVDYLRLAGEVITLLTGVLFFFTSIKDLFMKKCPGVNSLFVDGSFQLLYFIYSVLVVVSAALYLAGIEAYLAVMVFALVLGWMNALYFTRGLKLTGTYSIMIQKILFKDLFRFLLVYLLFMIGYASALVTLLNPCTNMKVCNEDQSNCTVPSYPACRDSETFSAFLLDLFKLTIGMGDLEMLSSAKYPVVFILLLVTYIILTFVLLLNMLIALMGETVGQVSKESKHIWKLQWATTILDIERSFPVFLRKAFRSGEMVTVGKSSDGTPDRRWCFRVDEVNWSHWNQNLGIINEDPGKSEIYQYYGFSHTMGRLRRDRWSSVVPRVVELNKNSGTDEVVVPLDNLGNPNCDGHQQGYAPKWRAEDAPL
As to the kind of experiment: Thermo-TRP assay: [Ca2+]i elevation (Fluo-4) in HEK-293 cells transfected with TRPV4. How it is done: as §1

For the next test, the target named is T4, rat TRPV2 (Rattus norvegicus, UniProt Q9WUD2).
T4 construct: expressed in transfected cells
T4 sequence (Q9WUD2 1-761): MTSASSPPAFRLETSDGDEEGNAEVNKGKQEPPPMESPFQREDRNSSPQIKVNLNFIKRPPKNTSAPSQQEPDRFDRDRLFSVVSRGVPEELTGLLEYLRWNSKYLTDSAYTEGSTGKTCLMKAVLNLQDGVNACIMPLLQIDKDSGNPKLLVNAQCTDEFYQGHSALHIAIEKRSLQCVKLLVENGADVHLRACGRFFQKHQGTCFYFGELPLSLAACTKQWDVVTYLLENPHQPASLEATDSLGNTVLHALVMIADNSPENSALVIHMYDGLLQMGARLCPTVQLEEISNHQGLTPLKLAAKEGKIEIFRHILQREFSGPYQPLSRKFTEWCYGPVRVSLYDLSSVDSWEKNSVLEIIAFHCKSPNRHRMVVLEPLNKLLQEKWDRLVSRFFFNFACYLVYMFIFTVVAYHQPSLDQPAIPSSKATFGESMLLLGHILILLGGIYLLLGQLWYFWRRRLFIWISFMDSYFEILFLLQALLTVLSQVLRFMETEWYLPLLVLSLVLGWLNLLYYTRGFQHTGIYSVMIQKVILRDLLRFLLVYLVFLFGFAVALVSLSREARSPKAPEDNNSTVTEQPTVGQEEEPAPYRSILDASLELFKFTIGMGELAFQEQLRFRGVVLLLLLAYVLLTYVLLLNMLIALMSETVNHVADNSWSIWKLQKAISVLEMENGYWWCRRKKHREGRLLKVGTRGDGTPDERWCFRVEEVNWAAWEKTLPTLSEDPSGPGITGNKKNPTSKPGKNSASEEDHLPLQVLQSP
As to the kind of experiment: Thermo-TRP assay: [Ca2+]i elevation (Fluo-4) in HEK-293 cells transfected with TRPV2. The following applies: for TRPV2 Efficacy (% Ionomycin 4 μM): agonist effect as % of ionomycin 4 μM; for EC50: half-maximal increase in [Ca2+]i, read-out: TRPV2 Potency EC50; for IC50: vs CBD 2 μM. How it is done:
The compounds were tested on HEK-293 cells either stably transfected with rat TRPA1, TRPV2, TRPV3, TRPV4, TRPM8 or human TRPV1 or not-transfected, by performing a continuous monitoring of the intracellular calcium ([Ca^2+]i) elevation during the experiments, following the protocol already described. On the day of the experiment, the cells were loaded for 1 h in the dark at room temperature with the fluorescent probe Fluo-4 AM (4 μM in DMSO containing 0.02% Pluronic F-127). The cells were rinsed, resuspended in Tyrode’s solution (145 mM NaCl, 2.5 mM KCl, 1.5 mM CaCl2, 1.2 mM MgCl2, 10 mM D-glucose, and 10 mM HEPES, pH 7.4), and transferred to a quartz cuvette of a spectrofluorimeter (PerkinElmer LS50B; λEX = 488 nm, λEM = 516 nm) equipped with a PTP-1 fluorescence Peltier system (PerkinElmer Life and Analytical Sciences, Waltham, MA, USA) under continuous stirring. Cell fluorescence before and after the addition of various concentrations of tested compounds was measured, normalizing the effects against the response to ionomycin (IM, 4 μM). The effect on [Ca^2+]i in non-transfected HEK-293 cells were used as the baseline and subtracted from the values obtained from the transfected ones. The efficacy of the agonists was determined by normalizing their effect to the maximum Ca^2+ influx effect on [Ca^2+]i observed with application of 4μM ionomycin. The effects of TRPA1 agonists are expressed as a percentage of the effect obtained with 100 μM allyl isothiocyanate (AITC). In the TRPV3 assay, rat TRPV3-expressing HEK-293 cells were first sensitized with the structurally unrelated agonist 2-aminoethoxydiphenyl borate (100 μM). For the TRPM8, the experiments were carried out at 22 °C. The potency (EC50 values) is determined as the concentration required to produce half-maximal increases in [Ca^2+]i. Antagonist/desensitizing behavior is evaluated against the agonist of the TRP analyzed by adding the compounds directly in the quartz cuvette 5 min before stimulation of cells with the agonist (allylisothiocyanate (100 μM) for TRPA1, capsaicin (0.1 μM) for TRPV1, cannabidiol (2 μM) for TRPV2, thymol (100 μM) for TRPV3, GSK1016790A (10 nM) for TRPV4, and icilin (0.25 μM) for TRPM8). The IC50 value is expressed as the concentration exerting a half-maximal inhibition of the agonist effect, taking as 100% the effect on [Ca^2+]i exerted by the agonist alone. A dose-response curve fitting (sigmoidal dose-response variable slope) and parameter estimation were performed with Graph-Pad Prism 8 (GraphPad Software Inc., San Diego, CA, USA). All determinations were performed at least in triplicate.

The mark [1] stands for this setting: vs Capsaicin 0.1 μM, read-out: IC50 TRPV1.
Setting [2] is: vs GSK1016790A 10 nM, read-out: IC50 TRPV4.

From paper PMC11942486, “The Impact of a Quinone Scaffold on Thermo-TRPs Modulation by Dimethylheptyl Phytocannabinoids” (International Journal of Molecular Sciences, 2025) come the findings set out here.

Each structure is given as a SMILES string. Like-named read-outs stand apart in the source and are kept apart here.

T1 sequence (Q6RI86 whole entry): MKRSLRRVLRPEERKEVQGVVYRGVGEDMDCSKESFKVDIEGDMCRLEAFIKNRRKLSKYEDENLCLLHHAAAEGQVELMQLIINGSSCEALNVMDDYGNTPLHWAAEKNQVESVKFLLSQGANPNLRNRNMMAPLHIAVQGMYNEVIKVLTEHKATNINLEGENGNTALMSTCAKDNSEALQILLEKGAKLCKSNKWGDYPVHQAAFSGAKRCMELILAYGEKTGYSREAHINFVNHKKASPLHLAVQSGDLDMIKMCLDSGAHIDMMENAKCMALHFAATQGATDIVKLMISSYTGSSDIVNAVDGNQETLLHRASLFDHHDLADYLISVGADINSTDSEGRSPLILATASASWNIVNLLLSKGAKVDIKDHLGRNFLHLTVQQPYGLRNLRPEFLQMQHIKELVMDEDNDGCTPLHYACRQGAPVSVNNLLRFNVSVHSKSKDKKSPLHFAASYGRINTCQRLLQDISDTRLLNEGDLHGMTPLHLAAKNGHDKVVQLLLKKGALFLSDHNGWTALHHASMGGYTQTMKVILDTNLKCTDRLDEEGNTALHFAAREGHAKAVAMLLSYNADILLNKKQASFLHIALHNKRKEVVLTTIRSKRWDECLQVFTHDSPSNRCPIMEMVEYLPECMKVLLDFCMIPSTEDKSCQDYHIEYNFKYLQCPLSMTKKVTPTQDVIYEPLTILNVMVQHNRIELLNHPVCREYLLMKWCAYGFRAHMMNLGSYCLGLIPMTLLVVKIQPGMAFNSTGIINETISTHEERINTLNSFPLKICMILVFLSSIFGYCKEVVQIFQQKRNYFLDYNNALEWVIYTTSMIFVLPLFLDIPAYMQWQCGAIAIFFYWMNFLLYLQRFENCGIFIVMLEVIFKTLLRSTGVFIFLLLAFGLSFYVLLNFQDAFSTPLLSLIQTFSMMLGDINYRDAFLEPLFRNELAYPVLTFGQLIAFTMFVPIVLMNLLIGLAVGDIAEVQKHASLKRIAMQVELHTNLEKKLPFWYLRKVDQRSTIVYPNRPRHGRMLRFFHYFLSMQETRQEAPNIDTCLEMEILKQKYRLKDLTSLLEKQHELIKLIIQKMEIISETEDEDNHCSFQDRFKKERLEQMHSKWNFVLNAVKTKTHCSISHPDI

A word on the IC50: it is the concentration that gives 50% inhibition. As a reminder, the EC50 is the concentration giving half of the maximal effect. With `C=C(C)[C@@H]1CCC(C)=C[C@H]1C1=C(O)C(=O)C(C(C)(C)CCCCCC)=CC1=O` [5b], on rat TRPA1, the “TRPA1 Efficacy (% AITC 100 μM)” value is given as 120.4 ± 3.0%, the IC50 was found to be 3.5 ± 0.2 µM and the EC50 came out at 5.2 ± 0.8 µM. In addition, at human TRPV1 (setting [1]), the IC50 was more than 100 µM. For the same compound, the IC50 on rat TRPV4 (setting [2]) is more than 100 µM. Besides, on rat TRPV2, the “TRPV2 Efficacy (% Ionomycin 4 μM)” value turned out to be 30.6 ± 6.5%, the half-maximal effective concentration (EC50) stood at 12.2 ± 9.7 µM and the IC50 is 5.45 ± 0.5 µM.
On to `CCCCCCC(C)(C)C1=CC2=C(C(=O)C1=O)[C@@H]1CC(C)=CC[C@H]1C(C)(C)O2` [6b], for which the “TRPA1 Efficacy (% AITC 100 μM)” value on rat TRPA1 is listed as 147.3 ± 7.3%. In addition, the IC50 on rat TRPA1 is 1.8 ± 0.3 µM; on human TRPV1 it was more than 100 µM; on rat TRPV4 it was more than 100 µM; against rat TRPV2, 8.5 ± 0.5 µM. In addition, the EC50 on rat TRPA1 is 4.4 ± 1.25 µM; at rat TRPV2 it was more than 50 µM. The “TRPV2 Efficacy (% Ionomycin 4 μM)” value on rat TRPV2 is listed as 78.1 ± 4.0%.
On to `CCCCCCC(C)(C)C1=CC(=O)C(C/C=C(\C)CCC=C(C)C)=C(O)C1=O` [7b, p-DMHCBGQ], for which the “TRPA1 Efficacy (% AITC 100 μM)” value at rat TRPA1 came to 114.2 ± 4.1%. Also, the IC50 at rat TRPA1 is 1.1 ± 0.1 µM; at human TRPV1 (setting [1]) it was more than 100 µM; on rat TRPV4 (setting [2]), more than 50 µM; at rat TRPV2, 23.7 ± 2.9 µM. The EC50 on rat TRPA1 was 1.1 ± 0.2 µM; on rat TRPV2, 30.5 ± 3.9 µM. The “TRPV2 Efficacy (% Ionomycin 4 μM)” value on rat TRPV2 is 47.8 ± 1.4%.
In the case of `CCCCCCC(C)(C)C1=CC(=O)C2=C(OC(C)(CCC=C(C)C)C=C2)C1=O` (centres unmarked) [8b], on rat TRPA1, the “TRPA1 Efficacy (% AITC 100 μM)” value was determined as 111.2 ± 2.1%, the IC50 came out at 0.35 ± 0.02 µM and the EC50 was 0.19 ± 0.03 µM. Further, the IC50 at human TRPV1 (setting [1]) was more than 100 µM. For the same compound, the IC50 on rat TRPV4 (setting [2]) was more than 100 µM. Besides, on rat TRPV2, the “TRPV2 Efficacy (% Ionomycin 4 μM)” value is recorded as 31.5 ± 2.9%, the EC50 is more than 50 µM and 6.9 ± 0.1 µM corresponded to half-maximal inhibition (IC50).
